Data: paper PMC9657391, “A Food-Grade Method for Enhancing the Levels of Low Molecular Weight Proanthocyanidins with Potentially High Intestinal Bioavailability” (International Journal of Molecular Sciences, 2022)

Molecular target: T1, COX-2 (cyclooxygenase 2) (Homo sapiens, UniProt P35354)
T1 construct: gene PTGS2
Experiment: biochemical

T1 sequence (P35354 18-604): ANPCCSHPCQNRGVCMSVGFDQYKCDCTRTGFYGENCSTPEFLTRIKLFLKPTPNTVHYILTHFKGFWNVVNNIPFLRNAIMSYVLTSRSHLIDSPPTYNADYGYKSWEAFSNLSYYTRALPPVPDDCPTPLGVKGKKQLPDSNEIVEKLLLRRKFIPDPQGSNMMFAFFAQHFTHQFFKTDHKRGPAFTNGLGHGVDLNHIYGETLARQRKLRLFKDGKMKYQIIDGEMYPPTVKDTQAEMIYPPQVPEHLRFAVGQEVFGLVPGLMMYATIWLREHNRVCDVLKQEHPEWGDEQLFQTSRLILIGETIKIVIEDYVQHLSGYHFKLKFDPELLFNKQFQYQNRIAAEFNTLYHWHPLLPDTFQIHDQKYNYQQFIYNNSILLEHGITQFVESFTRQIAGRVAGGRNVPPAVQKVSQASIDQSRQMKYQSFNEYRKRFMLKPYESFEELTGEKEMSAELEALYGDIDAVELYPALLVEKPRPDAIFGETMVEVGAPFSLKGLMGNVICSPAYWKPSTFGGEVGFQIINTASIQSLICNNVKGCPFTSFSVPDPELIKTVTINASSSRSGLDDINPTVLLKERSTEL

## COc1ccc2cc([C@H](C)C(=O)O)ccc2c1 [Naproxen]
  IC50: 13 µM
